ChEMBL document CHEMBL3217707, “A matched molecular pair analysis of in vitro human microsomal metabolic stability measurements for heterocyclic replacements of di-substituted benzene containing compounds identification of those isosteres more likely to have beneficial effects” (Medchemcomm, 2012)

Legend:
[1] = Intrinsic clearance in human liver microsomes after 30 mins; format: ADME; conditions: read-out: CLH
[2] = Lipophilicity, log D of the compound at pH 7.4; conditions: buffer

Row | microsomal CLint [1] [µL/min/mg] | logD [2] | Structure (SMILES)
1 | 105 | – | CC(C)(C)OC(=O)N1CCN(c2ccc(OCc3ccc(S(C)(=O)=O)cc3)nc2)CC1
2 | 86.8 | – | CC(C)(C)OC(=O)N1CCN(c2cnc(OCc3ccc(S(C)(=O)=O)cc3)nc2)CC1
3 | 29.9 | 3.4 | CC(C)(C)OC(=O)N1CCN(c2cnc(OCc3ccc(S(C)(=O)=O)cc3)cn2)CC1
4 | 247 | 3.2 | CC(C)(C)OC(=O)N1CCN(c2ccc(OCc3ccc(S(C)(=O)=O)cc3)cn2)CC1
5 | 139 | 2.8 | CC(C)(C)OC(=O)N1CCN(c2ccc(OCc3ccc(S(C)(=O)=O)cc3)nn2)CC1
6 | 131 | 2.9 | CC(C)(C)OC(=O)N1CCN(c2ncc(OCc3ccc(S(C)(=O)=O)cc3)nn2)CC1
7 | 60 | – | CC(C)(C)OC(=O)N1CCN(c2ncc(OCc3ccc(S(C)(=O)=O)cc3)cn2)CC1
8 | 62.6 | 3.9 | CC(C)(C)OC(=O)N1CCN(c2ccc(OCc3ccc(S(C)(=O)=O)cc3)cc2)CC1
